≈ marks a conversion by molar mass, not a printed value. Where two headings read alike, the source gives them in different places.

In one data set the test system is TNF-α. In words: TNF-α-induced NF-κB activation luciferase reporter counterscreen. In kind it is cell-based. The conditions noted are these: Homo sapiens.
The test system of data set [1] is NF-κB activation via doxorubicin-induced pathway. In words: NF-κB selectivity assay, HEK 293-T cells, doxorubicin induction. In kind it is cell-based, human.
Data set [2] relates to NF-κB activation via PMA/ionomycin. In words: NF-κB selectivity assay, HEK 293-T cells, PMA/ionomycin induction. In kind it is cell-based, human.
A short description of data set [3]: Aqueous kinetic solubility. Type of data set: physicochemical. Particulars: aqueous solution, pH 6.2.
Data set [4] is described as follows: Plasma protein binding, human plasma. Type of data set: in vitro ADME.
Data set [5] can be described thus: Plasma protein binding, mouse plasma. In kind it is in vitro ADME.
Data set [6] can be described thus: Plasma stability, human plasma. In kind it is in vitro ADME. Particulars: Plasma/PBS, compound at 1 μM, 3 h.
Data set [7] in a line: Plasma stability, mouse plasma. Particulars: Plasma/PBS, compound at 1 μM, 3 h. Type of data set: in vitro ADME.
Data set [8] in a line: Metabolic stability in human hepatic microsomes. Type of data set: in vitro ADME. The conditions noted are these: percent remaining at 1 h.
The nature of data set [9]: Metabolic stability in mouse hepatic microsomes. In kind it is in vitro ADME. The conditions noted are these: percent remaining at 1 h.
Data set [10] deals with T1, CFLT3 (Fms-like tyrosine kinase) (Homo sapiens, UniProt P36888).
T1 sequence (P36888 27-993): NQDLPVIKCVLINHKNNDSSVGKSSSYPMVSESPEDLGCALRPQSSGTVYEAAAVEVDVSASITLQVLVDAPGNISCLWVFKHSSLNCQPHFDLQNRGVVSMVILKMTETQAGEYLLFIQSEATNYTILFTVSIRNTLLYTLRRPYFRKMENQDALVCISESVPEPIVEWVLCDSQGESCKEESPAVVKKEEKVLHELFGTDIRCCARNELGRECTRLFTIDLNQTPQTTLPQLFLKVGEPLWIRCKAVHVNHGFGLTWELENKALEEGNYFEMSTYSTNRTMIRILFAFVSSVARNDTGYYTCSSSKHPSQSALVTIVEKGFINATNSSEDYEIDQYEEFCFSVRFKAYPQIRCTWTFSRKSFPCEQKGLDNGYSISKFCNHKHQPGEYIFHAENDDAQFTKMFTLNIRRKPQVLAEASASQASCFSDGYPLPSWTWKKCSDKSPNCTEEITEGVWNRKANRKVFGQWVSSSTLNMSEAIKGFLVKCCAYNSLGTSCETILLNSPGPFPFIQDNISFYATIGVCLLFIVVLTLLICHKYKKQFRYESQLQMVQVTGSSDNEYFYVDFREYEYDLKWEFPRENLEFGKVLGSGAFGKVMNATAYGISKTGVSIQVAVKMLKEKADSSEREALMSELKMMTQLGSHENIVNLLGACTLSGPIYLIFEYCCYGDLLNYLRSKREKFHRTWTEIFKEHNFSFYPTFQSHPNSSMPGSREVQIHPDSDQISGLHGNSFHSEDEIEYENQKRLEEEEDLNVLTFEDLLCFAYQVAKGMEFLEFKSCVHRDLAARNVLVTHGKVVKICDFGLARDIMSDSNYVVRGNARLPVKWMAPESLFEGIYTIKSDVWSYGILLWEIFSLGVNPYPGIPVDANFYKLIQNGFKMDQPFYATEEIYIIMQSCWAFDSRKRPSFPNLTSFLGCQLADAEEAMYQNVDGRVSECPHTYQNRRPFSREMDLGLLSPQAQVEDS
The experiment in a line: Ambit KinomeScreen, FLT3. The conditions noted are these: 10 μM.

The test system of another data set is 443 kinases. In words: Ambit KinomeScreen panel. Particulars: 10 μM.
Data set [11] deals with RIOK2 (right open reading frame) (Homo sapiens, UniProt Q9BVS4). The experiment in a line: Ambit KinomeScreen, RIOK2. The conditions noted are these: 10 μM.
Chain of RIOK2 (right open reading frame) (Q9BVS4 whole entry, species assumed): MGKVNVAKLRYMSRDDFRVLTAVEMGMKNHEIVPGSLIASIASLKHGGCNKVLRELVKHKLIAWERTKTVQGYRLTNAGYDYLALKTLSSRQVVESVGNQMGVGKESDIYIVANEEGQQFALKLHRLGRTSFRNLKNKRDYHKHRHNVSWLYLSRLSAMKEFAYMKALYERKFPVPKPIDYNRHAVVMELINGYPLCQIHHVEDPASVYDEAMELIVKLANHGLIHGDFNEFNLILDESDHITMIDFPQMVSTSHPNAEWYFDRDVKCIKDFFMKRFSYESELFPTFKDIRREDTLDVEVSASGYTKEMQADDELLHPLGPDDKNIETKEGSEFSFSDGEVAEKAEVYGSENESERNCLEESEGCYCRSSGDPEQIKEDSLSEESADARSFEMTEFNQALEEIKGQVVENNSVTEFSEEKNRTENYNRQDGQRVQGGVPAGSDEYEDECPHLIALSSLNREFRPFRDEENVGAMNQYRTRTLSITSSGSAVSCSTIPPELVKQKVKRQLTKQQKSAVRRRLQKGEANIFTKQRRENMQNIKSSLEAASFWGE
Data set [12] has as its system NCI 60 human tumor cell line.
Setting [13] is: read-out: TNF-α (NOD1-dependent) IC50.

As for `Cc1ccc(S(=O)(=O)n2c(N)nc3ccccc32)cc1` [1c], the IC50 in the data set with TNF-α (setting [13]) was over 20 µM. For the same molecule, the “inhibition of NF-κB activation via doxorubicin-induced pathway” value in [1] is “did not inhibit”. Further, the “inhibition of NF-κB activation via PMA/ionomycin” value in [2] is recorded as “did not inhibit”. Further, the solubility at 18 h in [3] stood at 2 µg/mL (≈ 6.96 µM). The plasma protein binding came out at 97.5 % bound in [4] (1 μM), 97.7 % bound in data set [4] (10 μM), 95.0 % bound in data set [5] (1 μM) and 95.5 % bound in data set [5] (10 μM). Moreover, the plasma stability in [6] and in data set [7] was 100/100 % remaining each time. Besides, the microsome stability is 41.8 % remaining in data set [8] and 0.8 % remaining in data set [9]. Also, the “Inhibitory activity (reported as % control), CFLT3” value in data set [10] was found to be 27 % C. Also, the “activity against 443 kinases” value in the data set with 443 kinases was “little activity”. Moreover, the “Inhibitory activity (reported as % control), RIOK2” value in data set [11] is recorded as 6 % C. Besides, the “cytotoxicity in NCI 60 screen” value in data set [12] is “noncytotoxic”.
As for `Nc1nc2ccccc2n1S(=O)(=O)c1ccccc1` [4c], in the data set with TNF-α (setting [13]), the IC50 was over 20 µM.
Still for that read-out and setting: in the case of `Cc1ccc(S(=O)(=O)n2cnc3ccccc32)cc1` [6c] it was over 20 µM.
On to `CC(=O)c1ccc(N2CCN(S(=O)(=O)c3ccc4c(c3)CC(C)N4C(=O)C3CC3)CC2)cc1` (stereo not shown) [7a], for which the IC50 with TNF-α (read-out: TNF-α IC50) was over 20 µM.
Consider `Cc1ccc(S(=O)(=O)n2c(S)nc3ccc(C)cc32)cc1` [8c], for which, in the data set on TNF-α (setting [13]), the half-inhibitory concentration (IC50) was over 20 µM.
On the same count and under the same terms, then `Cc1ccc(S(=O)(=O)n2c(N)nc3cc(C)c(C)cc32)cc1` [9c], with over 20 µM; and `Nc1nc2ccccc2n1Cc1ccc(Cl)cc1` [10c], with over 20 µM.
On to `Nc1nc2ccccc2n1CCC(=O)c1ccc(Cl)cc1` [13c], for which the 50% inhibitory concentration (IC50) in the data set with TNF-α (setting [13]) was over 20 µM.
On the same count and under the same terms, in the case of `COc1ccc(C(=O)Cn2c(N)nc3ccccc32)cc1` [14c] it was over 20 µM; in that of `Nc1nc2ccccc2n1C(=O)Cc1ccccc1` [15c], over 20 µM.
For `O=C(C1CC1)N1CCc2cc(S(=O)(=O)N3CCN(c4ccc(Cl)cc4)CC3)ccc21` [18a], the IC50 in the data set with TNF-α (read-out: TNF-α IC50) is over 20 µM.
Same read-out and setting: then `N#Cc1ccc(N2CCN(S(=O)(=O)c3ccc4c(c3)CCN4C(=O)C3CC3)CC2)cc1` [19a], with over 20 µM; and `CC(=O)c1ccc(N2CCN(S(=O)(=O)c3ccc4c(c3)CCN4C(=O)C3CC3)CC2)cc1` [20a], with over 20 µM.
The same measure, in the same setting: in the case of `O=C(C1CC1)N1CCc2cc(S(=O)(=O)N3CCN(c4ccc([N+](=O)[O-])cc4)CC3)ccc21` [21a] it was over 20 µM; in that of `CCC(=O)N1CCc2cc(S(=O)(=O)N3CCN(c4ccc(C(C)=O)cc4)CC3)ccc21` [22a], over 20 µM.
Same read-out and setting: then `CCC(=O)N1CCc2cc(S(=O)(=O)N3CCN(c4ccc([N+](=O)[O-])cc4)CC3)ccc21` [23a], with over 20 µM; and `CC(=O)c1ccc(N2CCN(S(=O)(=O)c3ccc4c(c3)CCN4C(C)=O)CC2)cc1` [25a], with over 20 µM.
`CC(=O)N1CCc2cc(S(=O)(=O)N3CCN(c4ccc([N+](=O)[O-])cc4)CC3)ccc21` [26a]: in the data set on TNF-α (read-out: TNF-α IC50), the IC50 is over 20 µM.
On the same count and under the same terms, in the case of `CC(=O)N1CCc2cc(S(=O)(=O)N3CCN(c4ccc(Cl)cc4)CC3)ccc21` [27a] it was over 20 µM.

The values are drawn from publication PMC3193285 (ACS Medicinal Chemistry Letters, 2011).
